From PMC10935061 (Acta Pharmaceutica Sinica. B, 2023) come the findings set out here.

In the experiment the target is Nur77 (Homo sapiens, UniProt P22736). In words: SPR. In kind it is binding.
Chain of Nur77 (P22736 360-598 limits assumed): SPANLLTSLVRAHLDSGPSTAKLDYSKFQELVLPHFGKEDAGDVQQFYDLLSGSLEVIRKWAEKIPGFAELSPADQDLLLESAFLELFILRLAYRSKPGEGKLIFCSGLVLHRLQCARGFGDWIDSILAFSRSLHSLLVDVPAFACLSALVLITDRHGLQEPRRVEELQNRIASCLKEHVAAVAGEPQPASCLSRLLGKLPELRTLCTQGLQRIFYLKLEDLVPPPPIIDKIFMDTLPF

As a reminder, the Kd is the constant that tells how readily two partners part at equilibrium. As for `CCCCCCCC(=O)c1cc(OC)c(OC)c(OC)c1CC(=O)OCC` [TMPA], the Kd was 380 nM.
